Source: paper PMC6659393, “A New Use for an Old Drug: Carmofur Attenuates Lipopolysaccharide (LPS)-Induced Acute Lung Injury via Inhibition of FAAH and NAAA Activities” (Frontiers in Pharmacology, 2019)

Columns and labels:
[1] = molecular target: T1, fatty acid amide hydrolase (FAAH) (Rattus norvegicus, UniProt P97612); experiment: AEA hydrolysis by HPLC-MS in crude protein of carmofur-treated HEK293-rFAAH cells; dialysis reversibility test; format: cell-based
T1 construct: rat FAAH overexpressed in HEK293 cells (HEK293-rFAAH), crude protein
T1 sequence (P97612 1-579): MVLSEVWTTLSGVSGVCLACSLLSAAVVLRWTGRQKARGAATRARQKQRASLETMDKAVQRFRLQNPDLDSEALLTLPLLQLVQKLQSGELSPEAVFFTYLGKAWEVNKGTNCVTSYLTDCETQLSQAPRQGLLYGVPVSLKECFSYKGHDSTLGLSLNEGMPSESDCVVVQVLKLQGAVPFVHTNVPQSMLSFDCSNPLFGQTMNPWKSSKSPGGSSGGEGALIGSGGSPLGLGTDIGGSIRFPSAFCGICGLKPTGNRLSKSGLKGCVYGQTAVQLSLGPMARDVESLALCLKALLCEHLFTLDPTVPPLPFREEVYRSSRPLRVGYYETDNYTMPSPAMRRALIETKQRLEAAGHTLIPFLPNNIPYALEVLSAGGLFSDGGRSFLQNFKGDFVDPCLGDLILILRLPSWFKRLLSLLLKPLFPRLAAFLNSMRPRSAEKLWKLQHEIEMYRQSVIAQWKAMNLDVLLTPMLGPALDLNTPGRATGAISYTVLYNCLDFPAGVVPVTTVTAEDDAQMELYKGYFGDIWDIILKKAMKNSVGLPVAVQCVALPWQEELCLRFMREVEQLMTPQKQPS

[2] = molecular target: T2, N-acylethanolamine acid amidase (NAAA) (Rattus norvegicus, UniProt Q5KTC7); experiment: C17:[…] FAE hydrolysis by HPLC-MS in crude protein of carmofur-treated HEK293-rNAAA cells; dialysis reversibility test; format: cell-based
T2 construct: rat NAAA overexpressed in HEK293 cells (HEK293-rNAAA), crude protein
T2 sequence (Q5KTC7 34-130): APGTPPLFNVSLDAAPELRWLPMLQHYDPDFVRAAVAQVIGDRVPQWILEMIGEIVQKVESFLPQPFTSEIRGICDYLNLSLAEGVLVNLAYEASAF
T2 sequence (Q5KTC7 131-362): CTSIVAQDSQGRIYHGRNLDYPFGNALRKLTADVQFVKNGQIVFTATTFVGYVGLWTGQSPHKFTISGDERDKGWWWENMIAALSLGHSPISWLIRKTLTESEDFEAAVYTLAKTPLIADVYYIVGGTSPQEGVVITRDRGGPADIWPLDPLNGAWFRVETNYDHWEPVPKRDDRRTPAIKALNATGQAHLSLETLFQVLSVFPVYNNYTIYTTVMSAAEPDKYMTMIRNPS

## CCCCCCNC(=O)n1cc(F)c(=O)[nH]c1=O [carmofur]
[1]
  IC50: 110 ± 25 nM
[2]
  IC50: 710 ± 54 nM
